Assay [1] concerns MP3 strain of D. immitis. The conditions noted are these: cited from earlier work.
Assay [2] has as its system JYD-34 isolate of Dirofilaria immitis. Briefly: Efficacy of ivermectin and emodepside, separately and in combination, against induced Dirofilaria immitis infection in dogs (live worm counts at necropsy). The conditions noted are these: in vivo, po.
Setting [3] is: normal prophylaxis regimens, recent reports.

Where two headings read alike, the source gives them in different places.

Take `CO[C@H]1C[C@H](O[C@@H]2/C(C)=C/C[C@@H]3C[C@@H](C[C@]4(CC[C@H](C)[C@@H](C5CCCCC5)O4)O3)OC(=O)[C@@H]3C=C(C)/C(=N/O)[C@H]4OC/C(=C\C=C\[C@@H]2C)[C@]43O)O[C@@H](C)[C@@H]1O` [selamectin]: the “Efficacy against MP3 strain” value in assay [1] (setting [3]) is “incomplete efficacy”.

For `CC[C@H](C)[C@H]1O[C@]2(CC[C@@H]1C)C[C@@H]1C[C@@H](C/C=C(\C)[C@@H](O[C@H]3C[C@H](OC)[C@@H](O[C@H]4C[C@H](OC)[C@@H](O)[C@H](C)O4)[C@H](C)O3)[C@@H](C)/C=C/C=C3\CO[C@@H]4[C@H](O)C(C)=C[C@@H](C(=O)O1)[C@]34O)O2` [ivermectin oral solution, ivermectin], the Efficacy result in assay [2] was “Less than 50%”. The “Efficacy against MP3 strain” value in assay [1] (in vivo) was “incomplete efficacy”.

With milbemycin oxime, the “Efficacy against MP3 strain” value in assay [1] (setting [3]) is on record as “incomplete efficacy”.
